What was measured:
Experiment in all cases: relative viability (nuclei count vs DMSO), 5 days (fraction); higher = more cells survive
[1] = compound: C[C@@H](N)c1ccc(C(=O)Nc2ccnc3[nH]ccc23)cc1 + CC(=O)Nc1cccc(-n2c(=O)n(C3CC3)c(=O)c3c(Nc4ccc(I)cc4F)n(C)c(=O)c(C)c32)c1 [Trametinib] (partner 0.02 µM)
Method in brief: (§1)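 Relative viability divides the nuclei count in treated wells by that in vehicle wells. Lung cancer cell lines were seeded in 1536-well plates, dosed by pin tool the next day, and fixed and stained after 5 days in one step with final 0.05% Triton X-100, 1% formaldehyde and 1 ug/ml Hoechst. Dosing was a single drug or a fixed anchor-drug dose plus five library-drug doses (not always all listed) in √10 steps, and values are medians of duplicate plates imaged at 4×.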

[2] = compound: C[C@@H](N)c1ccc(C(=O)Nc2ccnc3[nH]ccc23)cc1 + N=C(N)NC(=N)NCCc1ccccc1 [Phenformin] (partner 250 µM)
Method in brief: as §1

[3] = compound: C1CNCCC1C2=CC(=NN2)C3=CC=NC=C3 + COc1cccc2cc(-c3nc([C@H]4CC[C@H](C(=O)O)CC4)n4ncnc(N)c34)[nH]c12 [OSI-027] (partner 0.5 µM)
Method in brief: as §1

[4] = compound: C1CNCCC1C2=CC(=NN2)C3=CC=NC=C3 + Cc1nc(Nc2ncc(C(=O)Nc3c(C)cccc3Cl)s2)cc(N2CCN(CCO)CC2)n1 [Dasatinib] (partner 0.075 µM)
Method in brief: as §1

NCI-H650 showed a relative viability ([1]; first compound 0.1265 µM) of 0.959, a relative viability ([1]; first compound 0.4 µM) of 0.968 and a relative viability ([1]; first compound 4 µM) of 1.03. For the same cell line, the relative viability ([2]; first compound 0.1265 µM) was 0.424, the relative viability ([2]; first compound 0.4 µM) was 0.46 and the relative viability ([2]; first compound 1.265 µM) was 0.203. It also gave a relative viability ([2]; first compound 4 µM) of 0.411, a relative viability ([3]; first compound 0.08 µM) of 0.513 and a relative viability ([3]; first compound 0.8 µM) of 0.58. For the same cell line, the relative viability ([3]; first compound 2.53 µM) was 0.505, the relative viability ([3]; first compound 8 µM) was 0.543 and the relative viability ([4]; first compound 0.08 µM) was 0.468. The relative viability ([4]; first compound 0.8 µM) was 0.45, the relative viability ([4]; first compound 2.53 µM) was 0.5 and the relative viability ([4]; first compound 8 µM) was 0.428.
CAL-12T was tested, and the relative viability ([1]; first compound 0.04 µM) was 0.34, the relative viability ([1]; first compound 0.1265 µM) was 0.408 and the relative viability ([1]; first compound 0.4 µM) was 0.38. For the same cell line, the relative viability ([1]; first compound 1.265 µM) was 0.447, the relative viability ([1]; first compound 4 µM) was 0.409 and the relative viability ([2]; first compound 0.04 µM) was 0.674. It also gave a relative viability ([2]; first compound 0.1265 µM) of 0.609, a relative viability ([2]; first compound 0.4 µM) of 0.665 and a relative viability ([2]; first compound 1.265 µM) of 0.538. It also gave a relative viability ([2]; first compound 4 µM) of 0.56, a relative viability ([3]; first compound 0.08 µM) of 0.823 and a relative viability ([3]; first compound 0.8 µM) of 0.866. For the same cell line, the relative viability ([3]; first compound 2.53 µM) was 0.84, the relative viability ([3]; first compound 8 µM) was 0.839 and the relative viability ([4]; first compound 0.08 µM) was 0.49. It also gave a relative viability ([4]; first compound 0.8 µM) of 0.49, a relative viability ([4]; first compound 2.53 µM) of 0.625 and a relative viability ([4]; first compound 8 µM) of 0.475.
With NCI-H2342 the relative viability ([1]; first compound 0.04 µM) was 0.91, the relative viability ([1]; first compound 0.1265 µM) was 0.821 and the relative viability ([1]; first compound 0.4 µM) was 0.837. For the same cell line, the relative viability ([1]; first compound 1.265 µM) was 0.746, the relative viability ([1]; first compound 4 µM) was 0.737 and the relative viability ([2]; first compound 0.04 µM) was 0.718. The relative viability ([2]; first compound 0.1265 µM) was 0.731, the relative viability ([2]; first compound 0.4 µM) was 0.676 and the relative viability ([2]; first compound 1.265 µM) was 0.718. For the same cell line, the relative viability ([2]; first compound 4 µM) was 0.622, the relative viability ([3]; first compound 0.08 µM) was 0.627 and the relative viability ([3]; first compound 0.8 µM) was 0.577. For the same cell line, the relative viability ([3]; first compound 2.53 µM) was 0.634, the relative viability ([3]; first compound 8 µM) was 0.674 and the relative viability ([4]; first compound 0.08 µM) was 0.343. For the same cell line, the relative viability ([4]; first compound 0.8 µM) was 0.268, the relative viability ([4]; first compound 2.53 µM) was 0.357 and the relative viability ([4]; first compound 8 µM) was 0.41.
SW 900 was tested, and the relative viability ([1]; first compound 0.04 µM) was 0.888, the relative viability ([1]; first compound 0.1265 µM) was 0.861 and the relative viability ([1]; first compound 0.4 µM) was 1.04. The relative viability ([1]; first compound 1.265 µM) was 1.14, the relative viability ([1]; first compound 4 µM) was 0.993 and the relative viability ([2]; first compound 0.04 µM) was 0.852. It also gave a relative viability ([2]; first compound 0.1265 µM) of 0.687, a relative viability ([2]; first compound 0.4 µM) of 0.512 and a relative viability ([2]; first compound 1.265 µM) of 0.618. The relative viability ([2]; first compound 4 µM) was 0.531, the relative viability ([3]; first compound 0.08 µM) was 0.51 and the relative viability ([3]; first compound 0.8 µM) was 0.569. For the same cell line, the relative viability ([3]; first compound 2.53 µM) was 0.713, the relative viability ([3]; first compound 8 µM) was 0.464 and the relative viability ([4]; first compound 0.08 µM) was 0.568. For the same cell line, the relative viability ([4]; first compound 0.8 µM) was 0.445, the relative viability ([4]; first compound 2.53 µM) was 0.519 and the relative viability ([4]; first compound 8 µM) was 0.452.
EPLC-272H gave a relative viability ([1]; first compound 0.04 µM) of 0.299, a relative viability ([1]; first compound 0.1265 µM) of 0.283 and a relative viability ([1]; first compound 0.4 µM) of 0.358. The relative viability ([1]; first compound 4 µM) was 0.267, the relative viability ([2]; first compound 0.04 µM) was 0.365 and the relative viability ([2]; first compound 0.1265 µM) was 0.44. For the same cell line, the relative viability ([2]; first compound 0.4 µM) was 0.279, the relative viability ([2]; first compound 1.265 µM) was 0.198 and the relative viability ([2]; first compound 4 µM) was 0.241. For the same cell line, the relative viability ([3]; first compound 0.08 µM) was 0.279, the relative viability ([3]; first compound 0.8 µM) was 0.348 and the relative viability ([3]; first compound 2.53 µM) was 0.318. For the same cell line, the relative viability ([3]; first compound 8 µM) was 0.292, the relative viability ([4]; first compound 0.08 µM) was 0.392 and the relative viability ([4]; first compound 0.8 µM) was 0.348. The relative viability ([4]; first compound 2.53 µM) was 0.393 and the relative viability ([4]; first compound 8 µM) was 0.415.
ABC-1 gave a relative viability ([2]; first compound 0.04 µM) of 0.254, a relative viability ([2]; first compound 0.1265 µM) of 0.262 and a relative viability ([2]; first compound 0.4 µM) of 0.227. For the same cell line, the relative viability ([2]; first compound 4 µM) was 0.243, the relative viability ([3]; first compound 0.08 µM) was 0.556 and the relative viability ([3]; first compound 0.8 µM) was 0.484. For the same cell line, the relative viability ([3]; first compound 2.53 µM) was 0.65, the relative viability ([3]; first compound 8 µM) was 0.575 and the relative viability ([4]; first compound 0.08 µM) was 0.55. For the same cell line, the relative viability ([4]; first compound 0.8 µM) was 0.563, the relative viability ([4]; first compound 2.53 µM) was 0.652 and the relative viability ([4]; first compound 8 µM) was 0.497.
With NCI-H1563 the relative viability ([2]; first compound 0.04 µM) was 0.623, the relative viability ([2]; first compound 0.1265 µM) was 0.74 and the relative viability ([2]; first compound 0.4 µM) was 0.632. For the same cell line, the relative viability ([2]; first compound 1.265 µM) was 0.687, the relative viability ([2]; first compound 4 µM) was 0.641 and the relative viability ([3]; first compound 0.08 µM) was 0.74. The relative viability ([3]; first compound 0.8 µM) was 0.771, the relative viability ([3]; first compound 2.53 µM) was 0.749 and the relative viability ([3]; first compound 8 µM) was 0.769. For the same cell line, the relative viability ([4]; first compound 0.08 µM) was 0.451, the relative viability ([4]; first compound 0.8 µM) was 0.465 and the relative viability ([4]; first compound 2.53 µM) was 0.486. For the same cell line, the relative viability ([4]; first compound 8 µM) was 0.485.
With NCI-H1648 the relative viability ([1]; first compound 0.04 µM) was 0.57, the relative viability ([1]; first compound 0.1265 µM) was 0.581 and the relative viability ([1]; first compound 0.4 µM) was 0.574. The relative viability ([1]; first compound 1.265 µM) was 0.266, the relative viability ([1]; first compound 4 µM) was 0.722 and the relative viability ([3]; first compound 0.08 µM) was 0.242. It also gave a relative viability ([3]; first compound 0.8 µM) of 0.271, a relative viability ([3]; first compound 2.53 µM) of 0.292 and a relative viability ([3]; first compound 8 µM) of 0.245.
In the case of A549, the relative viability ([2]; first compound 0.04 µM) is reported as 0.0717, the relative viability ([2]; first compound 0.1265 µM) is reported as 0.256 and the relative viability ([2]; first compound 0.4 µM) is reported as 0.279. The relative viability ([2]; first compound 4 µM) was 0.164.
With NCI-H1623 the relative viability ([2]; first compound 0.04 µM) was 0.637, the relative viability ([2]; first compound 0.1265 µM) was 0.528 and the relative viability ([2]; first compound 0.4 µM) was 0.415. For the same cell line, the relative viability ([2]; first compound 1.265 µM) was 0.29, the relative viability ([2]; first compound 4 µM) was 0.622 and the relative viability ([3]; first compound 0.08 µM) was 0.451. For the same cell line, the relative viability ([3]; first compound 0.8 µM) was 0.504, the relative viability ([3]; first compound 2.53 µM) was 0.488 and the relative viability ([3]; first compound 8 µM) was 0.42. It also gave a relative viability ([4]; first compound 0.08 µM) of 0.574, a relative viability ([4]; first compound 0.8 µM) of 0.38 and a relative viability ([4]; first compound 2.53 µM) of 0.557. The relative viability ([4]; first compound 8 µM) was 0.563.
HCC-44 was tested, and the relative viability ([1]; first compound 0.04 µM) was 1.08, the relative viability ([1]; first compound 0.1265 µM) was 1.11 and the relative viability ([1]; first compound 0.4 µM) was 1.18. It also gave a relative viability ([1]; first compound 1.265 µM) of 1.16, a relative viability ([1]; first compound 4 µM) of 0.952 and a relative viability ([2]; first compound 0.04 µM) of 0.138. The relative viability ([2]; first compound 0.1265 µM) was 0.172, the relative viability ([2]; first compound 0.4 µM) was 0.285 and the relative viability ([2]; first compound 1.265 µM) was 0.1. The relative viability ([2]; first compound 4 µM) was 0.218, the relative viability ([3]; first compound 0.08 µM) was 0.47 and the relative viability ([3]; first compound 0.8 µM) was 0.71. The relative viability ([3]; first compound 2.53 µM) was 0.627 and the relative viability ([3]; first compound 8 µM) was 0.787.

Reference: the supplement of paper PMC10307832
